Assay results from publication PMC7588595, “Small-molecule active pharmaceutical ingredients of approved cancer therapeutics inhibit human aspartate/asparagine-β-hydroxylase” (Bioorganic & Medicinal Chemistry, 2020).
Where a name gives a salt, the structure may show the parent alone. Read-outs that look alike come from different tables or passages of the source.

Molecular target: T1, human AspH (His6-AspH315–758) (Homo sapiens, UniProt Q12797)
T1 construct: N-Terminally His6-tagged human AspH315–758 (His6-AspH315–758) was produced in Escherichia coli BL21 (DE3) cells; made in house; host or cells: Escherichia coli BL21 (DE3), pET-28a(+) vector
T1 sequence (Q12797 315-758): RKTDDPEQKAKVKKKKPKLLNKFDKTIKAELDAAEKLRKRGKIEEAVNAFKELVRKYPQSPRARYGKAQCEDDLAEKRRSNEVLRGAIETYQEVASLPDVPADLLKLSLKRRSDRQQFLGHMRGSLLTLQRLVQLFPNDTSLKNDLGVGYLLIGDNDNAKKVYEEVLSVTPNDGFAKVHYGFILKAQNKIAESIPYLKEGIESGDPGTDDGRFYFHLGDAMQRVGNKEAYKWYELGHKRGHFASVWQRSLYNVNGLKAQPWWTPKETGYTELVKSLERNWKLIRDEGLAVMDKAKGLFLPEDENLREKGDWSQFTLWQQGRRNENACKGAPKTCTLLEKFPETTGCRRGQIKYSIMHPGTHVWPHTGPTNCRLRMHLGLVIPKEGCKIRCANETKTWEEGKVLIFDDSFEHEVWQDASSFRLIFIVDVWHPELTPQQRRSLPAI
Assay: SPE-MS AspH inhibition assay (hFX-CP101-119 substrate hydroxylation)
Assay type: biochemical
Conditions: for Plate 1 (% inhibition): 384-well Plate 1

[1] = AspH-inhibitor screening, 384-well Plate 1, substrate conversion
[2] = AspH-inhibitor screening, Plate 1-duplicate
[3] = AspH-inhibitor screening, Plate 1-duplicate, substrate conversion

| SMILES | Plate 1 (% inhibition) (AspH-inhibitor screening) | Plate 1 (% conversion) [1] | Plate 1-duplicate (% inhibition) [2] | Plate 1-duplicate (% conversion) [3] | Plate 1 (% conversion) | Plate 1-duplicate (% conversion) |
| --- | --- | --- | --- | --- | --- | --- |
| Cc1ccc(Nc2nccc(N(C)c3ccc4c(C)n(C)nc4c3)n2)cc1S(N)(=O)=O.Cl [Pazopanib hydrochloride] | -0.37% | 49.92% | -28.79% | 66.32% |  |  |
| Cc1ccc(Nc2nccc(N(C)c3ccc4c(C)n(C)nc4c3)n2)cc1S(N)(=O)=O [Pazopanib] | 4.18% | 47.82% | -21.51% | 62.71% |  |  |
| Nc1nc2[nH]cc(CCc3ccc(C(=O)N[C@@H](CCC(=O)[O-])C(=O)[O-])cc3)c2c(=O)[nH]1.O.O.O.O.O.O.O.[Na+].[Na+] [Pemetrexed, Disodium salt, Heptahydrate] | 6.49% | 46.75% | 6.63% | 48.75% |  |  |
| Nc1nc2[nH]cc(CCc3ccc(C(=O)N[C@@H](CCC(=O)O)C(=O)O)cc3)c2c(=O)[nH]1 [Pemetrexed] | 17.80% | 41.53% | 10.26% | 46.95% |  |  |
| OC[C@H]1O[C@@H](n2cnc3c2NC=NC[C@H]3O)C[C@@H]1O [Pentostatin] | 10.69% | 44.81% | 8.07% | 48.04% |  |  |
| CCCCCCCCCCCCCCCCCCOP(=O)([O-])OC1CC[N+](C)(C)CC1 [Perifosine aq/PBS] | -1.17% | 50.29% | -2.15% | 53.11% |  |  |
| CC[C@@H]1C(=O)OC[C@@H]1Cc1cncn1C [Pilocarpine] | 3.20% | 48.27% | 17.17% | 43.53% |  |  |
| O=C(CCBr)N1CCN(C(=O)CCBr)CC1 [Pipobroman] | 11.08% | 44.63% | 4.27% | 49.93% |  |  |
| c1cc(CN2CCCNCCNCCCNCC2)ccc1CN1CCCNCCNCCCNCC1 [Plerixafor] | 9.96% | 45.15% | 5.23% | 49.45% |  |  |
| Nc1cccc2c1C(=O)N(C1CCC(=O)NC1=O)C2=O (centres unmarked) [Pomalidomide] | 0.86% | 49.35% | 1.01% | 51.54% |  |  |
| C#CCC(Cc1cnc2nc(N)nc(N)c2n1)c1ccc(C(=O)N[C@@H](CCC(=O)O)C(=O)O)cc1 (some centres unmarked) [Pralatrexate] | 13.78% | 43.39% | 14.13% | 45.03% |  |  |
| CC[C@H](C)C(=O)O[C@H]1C[C@H](O)C=C2C=C[C@H](C)[C@H](CC[C@@H](O)C[C@@H](O)CC(=O)O)[C@H]21 [Pravastatin] | 12.19% | 44.12% | 8.98% | 47.59% |  |  |
| C[C@]12C=CC(=O)C=C1CC[C@@H]1[C@@H]2[C@@H](O)C[C@@]2(C)[C@H]1CC[C@]2(O)C(=O)CO [Prednisolone] | 19.12% |  | 12.03% |  | 40.92% | 46.08% |
| C[C@]12C=CC(=O)C=C1CC[C@@H]1[C@@H]2C(=O)C[C@@]2(C)[C@H]1CC[C@]2(O)C(=O)CO [Prednisone] | -2.32% | 50.82% | 2.01% | 51.04% |  |  |
| COCC1(CO)C(=O)C2CCN1CC2 (centres unmarked) [Prima-1 Met] | 3.70% | 48.04% | 3.39% | 50.36% |  |  |
| CNNCc1ccc(C(=O)NC(C)C)cc1 [Procarbazine hydrochloride] | 0.24% | 49.64% | 5.52% | 49.30% |  |  |
| CCN(CC)CCCC(C)Nc1c2ccc(Cl)cc2nc2ccc(OC)cc12 (centres unmarked) [Quinacrine HCl] | 11.37% | 44.50% | 8.52% | 47.81% |  |  |
| COc1cc(Nc2ncc(F)c(Nc3ccc4c(n3)NC(=O)C(C)(C)O4)n2)cc(OC)c1OC [R406_Tamatinib] | 11.05% | 44.65% | 0.72% | 51.68% |  |  |
| Cn1c(Nc2ccc(C(F)(F)F)cc2)nc2cc(Oc3ccnc(-c4ncc(C(F)(F)F)[nH]4)c3)ccc21 [RAF265] | 38.69% | 31.88% | 34.01% | 35.17% |  |  |
| CNC(=O)c1ccc(N2C(=S)N(c3ccc(C#N)c(C(F)(F)F)c3)C(=O)C23CCC3)cc1F [RD162] | -1.12% | 50.27% | -2.20% | 53.13% |  |  |
| COc1cc(F)c(F)c(Nc2ccc(I)cc2F)c1NS(=O)(=O)C1(C[C@H](O)CO)CC1 [RDEA119_Refametinib] | 2.93% | 48.40% | 4.05% | 50.03% |  |  |
| O=C(c1ccc(OCCN2CCCCC2)cc1)c1c(-c2ccc(O)cc2)sc2cc(O)ccc12 [Raloxifene] | 17.35% | 41.74% | 14.45% | 44.88% |  |  |
| CO[C@H]1C[C@@H]2CC[C@@H](C)[C@@](O)(O2)C(=O)C(=O)N2CCCC[C@H]2C(=O)O[C@H]([C@H](C)C[C@@H]2CC[C@@H](O)[C@H](OC)C2)CC(=O)[C@H](C)/C=C(\C)[C@@H](O)[C@@H](OC)C(=O)[C@H](C)C[C@H](C)/C=C/C=C/C=C/1C [Rapamycin (sirolimus)] | -16.43% | 57.34% | -26.38% | 65.13% |  |  |
| CO[C@H]1C[C@@H]2CC[C@@H](C)[C@@](O)(O2)C(=O)C(=O)N2CCCC[C@H]2C(=O)O[C@H]([C@H](C)C[C@@H]2CC[C@@H](OP(C)(C)=O)[C@H](OC)C2)CC(=O)[C@H](C)/C=C(\C)[C@@H](O)[C@@H](OC)C(=O)[C@H](C)C[C@H](C)/C=C/C=C/C=C/1C [Ridaforolimus] | 16.02% | 42.35% | 8.84% | 47.66% |  |  |
| CS(=O)(=O)c1ccc(C2=C(c3ccccc3)C(=O)OC2)cc1 [Rofecoxib (Vioxx)] | 0.07% | 49.72% | 2.99% | 50.56% |  |  |
| C/C=C1\NC(=O)[C@H]2CSSCC/C=C/[C@H](CC(=O)N[C@H](C(C)C)C(=O)N2)OC(=O)[C@H](C(C)C)NC1=O [Romidepsin] | 31.77% | 35.08% | 29.51% | 37.41% |  |  |
| CC[C@H](CO)Nc1nc(NCc2ccccc2)c2ncn(C(C)C)c2n1 [Roscovitine_Selicilib] |  |  |  |  | 48.67% | 50.17% |
| Cc1ccc(C(=O)N(CCCN)[C@@H](c2oc3cc(Cl)ccc3c(=O)c2Cc2ccccc2)C(C)C)cc1 [SB 743921] | -12.94% | 55.72% | -30.32% | 67.08% |  |  |
